Laboratory results taken from US11505573B2, “Peptide macrocycles against Acinetobacter baumannii” (Hoffmann-La Roche Inc., priority 2018, dated 2022).

Tested on: A. baumannii ATCC 17978
Assay: Antimicrobial susceptibility testing: 50% growth inhibitory concentration (IC50) determination in Iso-Sensitest broth
Type: cell-based
Settings: Acinetobacter baumannii; A. baumannii strain ATCC17978; Iso-Sensitest medium; OD 600 nm over 16 h; 35±2° C.; read-out: IC50 ATCC17978 (50% growth inhibition concentration)
Procedure: Antimicrobial Susceptibility Testing: 50% Growth Inhibitory Concentration (IC50) Determination The in vitro antimicrobial activity of the compounds was alternatively determined according to the following procedure: The assay used a 10-points Iso-Sensitest broth medium to measure quantitatively the in vitro activity of the compounds against A. baumannii ATCC 17978. Stock compounds in DMSO were serially twofold diluted (e.g. range from 10 to 0.02 μM final concentration) in 384 wells microtiter plates and inoculated with 49 μl the bacterial suspension in Iso-Sensitest medium to have a final cell concentration of ˜5×10^(5) CFU/ml in a final volume/well of […] Microtiter plates were incubated at 35±2° C. Bacterial cell growth was determined by the measurement of optical density at λ=600 nm each 20 minutes over a time course of 16 h. Growth inhibition was calculated during the logarithmic growth of the bacterial cells by determination of the concentration inhibiting 50% (IC50) and 90% (IC90) of the growth. Table 1 provides the 50% growth inhibitory concentrations (IC50) in micromoles per liter of the compounds of present invention obtained against the A. baumannnii strain ATCC17978.

SMILES | IC50 [µM]
CC(=O)NS(=O)(=O)c1ccc(-c2ccc(Cl)c3c2CNC(=O)[C@H](Cc2c[nH]c4ccccc24)N(C)C(=O)[C@H](CCCCNCC(F)F)NC(=O)[C@H](CCCO)NCc2cccnc2S3)cc1 [Example 17.00, N-[4-[(11S,14S,7S)-25-Chloro-14-[4-(2,2-difluoroethylamino)butyl]-11-(3-hydroxypropyl)-17-(1H-indol-3-ylmethyl)-16-methyl-12,15,18-trioxo-2-thia-4,10,13,16,19-pentazatricyclo[19.4.0.03,8]pentacosa-1(21),3,5,7,22,24-hexaen-22-yl]phenyl]sulfonylacetamide] | 5.22
CNCCCC[C@@H]1NC(=O)[C@H](CCCO)NCc2cccnc2Sc2c(Cl)ccc(-c3ccc(S(=O)(=O)NC(C)=O)cc3)c2CNC(=O)[C@H](Cc2c[nH]c3ccccc23)N(C)C1=O [Example 18.00, N-[4-[(11S,14S,17S)-25-Chloro-11-(3-hydroxypropyl)-17-(1H-indol-3-ylmethyl)-16-methyl-14-[4-(methylamino)butyl]-12,15,18-trioxo-2-thia-4,10,13,16,19-pentazatricyclo[19.4.0.03,8]pentacosa-1(21),3,5,7,22,24-hexaen-22-yl]phenyl]sulfonylacetamide] | 0.63
CN1C(=O)[C@H](CCCCNCC(F)F)NC(=O)[C@H](CCCN)NCc2cccnc2Sc2c(Cl)ccc(-c3cnc(O)nc3)c2CNC(=O)[C@@H]1Cc1c[nH]c2ccccc12 [Example 19.00, (11S,14S,17S)-11-(3-Aminopropyl)-25-chloro-14-[4-(2,2-difluoroethylamino)butyl]-22-(2-hydroxypyrimidin-5-yl)-17-(1H-indol-3-ylmethyl)-16-methyl-2-thia-4,10,13,16,19-pentazatricyclo[19.4.0.03,8]pentacosa-1(21),3,5,7,22,24-hexaene-12,15,18-trione] | 0.3
CC(=O)NS(=O)(=O)c1ccc(-c2ccc(Cl)c3c2CNC(=O)[C@H](Cc2c[nH]c4ccccc24)N(C)C(=O)[C@H](CCCCN)NC(=O)[C@H](CCCNCCC(=O)O)NCc2cccnc2S3)cc1 [Example 20.00, 3-[3-[(11S,14S,17S)-22-[4-(Acetylsulfamoyl)phenyl]-14-(4-aminobutyl)-25-chloro-17-(H-indol-3-ylmethyl)-16-methyl-12,15,18-trioxo-2-thia-4,10,13,16,19-pentazatricyclo[19.4.0.03,8]pentacosa-1(21),3,5,7,22,24-hexaen-11-yl]propylamino]propanoic acid] | 0.52
CN1C(=O)[C@H](CCCCN)NC(=O)[C@H](CCCN)NCc2cccnc2Sc2c(Cl)cc(-c3nnn[nH]3)cc2CNC(=O)[C@@H]1Cc1c[nH]c2ccccc12 [Example 21.00, (11S,14S,17S)-14-(4-Aminobutyl)-11-(3-aminopropyl)-25-chloro-17-(1H-indol-3-ylmethyl)-16-methyl-23-(1H-tetrazol-5-yl)-2-thia-4,10,13,16,19-pentazatricyclo[19.4.0.03,8]pentacosa-1(21),3,5,7,22,24-hexaene-12,15,18-trione] | 10
CN1C(=O)[C@H](CCCCN)NC(=O)[C@H](CCCN)NCc2cccnc2Sc2c(Cl)cc(-c3cn[nH]n3)cc2CNC(=O)[C@@H]1Cc1c[nH]c2ccccc12 [Example 22.00, (11S,14S,17S)-14-(4-Aminobutyl)-1-(3-aminopropyl)-25-chloro-17-(1H-indol-3-ylmethyl)-16-methyl-23-(1H-triazol-5-yl)-2-thia-4,10,13,16,19-pentazatricyclo[19.4.0.03,8]pentacosa-1(21),3,5,7,22,24-hexaene-12,15,18-trione] | 0.18
